Measured values taken from patent publication US9062041B2 (Bayer Intellectual Property GmbH, priority 2011, dated 2015).

How the values were obtained:
[1] = target: EP4 subtype of the human PGE2 receptor (Homo sapiens, UniProt P35408); assay: cAMP antagonism test on the human EP4 receptor (HTRF cAMP detection); assay type: cell-based; settings: selectivity towards hEP4, IC50 measured by cAMP antagonism test
In short: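 Competitive HTRF cAMP read-out (cAMP-d2 vs Eu-cryptate anti-cAMP antibody, 665/620 nm ratio) on lysed human EP4 cells. Compound (0.8 nM–16.5 μM) applied 20 min at RT before 60 min PGE2 challenge (3× solution 0.3 nM, IBMX present); 20 min lysis precedes reading.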

[2] = system: female cynomolgus monkeys (Macaca Fascicularis); assay: In-vivo action on fertility in non-human primates (mating study); settings: 6 months, 10 mg/kg (Example 17 once daily, Example 56 twice daily)
Protocol: 4.4 In-Vivo Action on Fertility in Non-Human Primates (Cynomolgus):
In order to study the effect of substances on fertility, mating studies can be performed in monkeys (Jensen et al. Contraception 81 (2010) 165-171). For this, the test substances are administered to female cynomolgus monkeys (Macaca Fascicularis) which are being kept in groups, then the animals are mated with a male animal. Matings are checked for by sperm detection in daily vaginal smears. Pregnancies resulting therefrom are identified by hormone determinations and ultrasound examinations. Through the changes in the serum oestradiol concentrations during the cycle, (rise before the midcycle LH peak), the fertile phase within a cycle of the individual animals can be determined Matings in this fertile period are described as “timed matings” (matings in the fertile phase). Apart from the absolute number of pregnancies occurring, the effect on the fertility can also be expressed as pregnancies per “timed matings”.
To test the action of EP2 receptor antagonists on fertility in monkeys, Examples 17 and 56 according to the invention were administered over 6 months, dissolved in 0.5 ml castor oil. Example 17 was administered once daily at a dosage of 10 mg/kg (n=10 animals), while Example 56 was administered twice daily at a dosage of 10 mg/kg (n=9 animals). Only the vehicle was administered to a control group (n=10 animals). In the first month of the treatment, no male animal was placed with the female animals. After this, female and male animals were kept together over 5 months, with detection of pregnancies and cycle monitoring.

[3] = target: EP2 subtype of the human PGE2 receptor (Homo sapiens, UniProt P43116); assay: cAMP antagonism test on the human EP2 receptor (HTRF cAMP detection); assay type: cell-based; settings: hEP2 receptor, read-out: Antagonism hEP2 IC50
In short: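 Read-out is a competitive HTRF for cAMP: lysate cAMP displaces cAMP-d2 from Eu cryptate-labelled antibody, and antagonism raises the 665/620 nm ratio. Compound (0.8 nM–16.5 μM) added to EP2 cells 20 min at RT before 60 min PGE2 challenge (3× stock 1.5 nM) with IBMX, followed by 20 min lysis.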

human PGD receptor = target: T1, human PGD receptor (Homo sapiens, UniProt Q13258); assay: cAMP antagonism test on the human prostaglandin D receptor (HTRF cAMP detection); assay type: cell-based; settings: selectivity towards hDP, IC50 measured by cAMP antagonism test
T1 sequence (Q13258 1-359): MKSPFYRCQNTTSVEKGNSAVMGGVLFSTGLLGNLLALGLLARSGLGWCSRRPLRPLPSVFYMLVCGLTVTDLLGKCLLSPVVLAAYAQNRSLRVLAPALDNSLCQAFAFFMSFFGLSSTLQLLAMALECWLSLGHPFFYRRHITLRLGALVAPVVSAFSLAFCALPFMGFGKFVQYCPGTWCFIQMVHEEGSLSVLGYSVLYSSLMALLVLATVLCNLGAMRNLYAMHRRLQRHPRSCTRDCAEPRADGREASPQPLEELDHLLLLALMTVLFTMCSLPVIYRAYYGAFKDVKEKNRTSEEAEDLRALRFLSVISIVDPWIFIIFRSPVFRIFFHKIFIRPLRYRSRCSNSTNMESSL
In short: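 HTRF competition read-out (665/620 nm ratio ×10000), where higher FRET means less cAMP, i.e. antagonism. Compounds (0.8 nM–16.5 μM) were preincubated 20 min at RT with cells and cAMP-d2, PGD2 (3× solution, 6 nM) in IBMX-containing PBS added for 30 min at RT, then cells lysed 20 min.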

cumulus-oocyte complexes = assay: Cumulus expansion test in vitro; assay type: cell-based, mice (strain: B6D2F1); settings: Mus musculus, 0.3 μM PGE2 for stimulation
Protocol: 4.2. Cumulus Expansions Test In Vitro In immature female mice (strain: B6D2F1 from Charles River), at an age of 14-18 days, the folliculogenesis was induced by a single administration (intraperitoneal) of 10 IU of PMSG (pregnant mare serum gonadotropin; Sigma G-4877, Lot 68H0909). 47-50 hours after the injection, the ovaries were removed and the cumulus-oocyte complexes removed. At this stage, the cumulus complex is not yet expanded. The cumulus-oocyte complexes were now incubated for 20-24 hours with prostaglandin E2 (PGE) (0.3 μM), vehicle control (ethanol) or test substances. Medium: alpha-MEM medium with 0.1 mM IBMX, pyruvate (0.23 mM), glutamine (2 mM), pen/strep 100 IU/ml pen. and 100 μg/ml strep.), HSA (8 mg/ml) and foetal bovine serum (FBS, 10%). The cumulus expansion was then established through the subdivision into four stages (after Vanderhyden et al. Dev Biol. 1990 August; 140(2):307-317).

Sequence of EP4 subtype of the human PGE2 receptor (P35408 whole entry): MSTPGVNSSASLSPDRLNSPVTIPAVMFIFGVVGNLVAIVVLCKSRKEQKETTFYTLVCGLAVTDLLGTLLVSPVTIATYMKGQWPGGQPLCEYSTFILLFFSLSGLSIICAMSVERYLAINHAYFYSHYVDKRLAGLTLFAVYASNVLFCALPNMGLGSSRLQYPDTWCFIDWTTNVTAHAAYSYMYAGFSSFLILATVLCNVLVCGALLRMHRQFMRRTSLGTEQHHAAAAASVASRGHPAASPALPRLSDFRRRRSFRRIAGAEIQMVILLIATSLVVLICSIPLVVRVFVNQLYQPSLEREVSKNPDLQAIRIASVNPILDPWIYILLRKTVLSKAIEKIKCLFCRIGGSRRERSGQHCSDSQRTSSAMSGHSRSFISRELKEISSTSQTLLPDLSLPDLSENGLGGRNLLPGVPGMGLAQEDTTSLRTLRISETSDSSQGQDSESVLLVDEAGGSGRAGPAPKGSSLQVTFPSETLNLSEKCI
Sequence of EP2 subtype of the human PGE2 receptor (P43116 whole entry): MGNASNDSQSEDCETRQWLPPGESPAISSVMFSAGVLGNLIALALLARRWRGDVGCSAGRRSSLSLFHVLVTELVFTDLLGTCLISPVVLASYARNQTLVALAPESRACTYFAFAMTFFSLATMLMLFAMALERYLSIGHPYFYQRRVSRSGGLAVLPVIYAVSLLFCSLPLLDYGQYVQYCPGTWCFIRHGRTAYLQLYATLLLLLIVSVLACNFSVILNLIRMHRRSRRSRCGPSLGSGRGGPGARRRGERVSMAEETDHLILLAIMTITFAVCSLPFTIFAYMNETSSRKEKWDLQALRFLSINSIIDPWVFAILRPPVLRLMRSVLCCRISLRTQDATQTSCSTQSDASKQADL

| SMILES | Selectivity hEP2/hEP4 [1] | % Pregnancies/"timed mating" [2] [%] | Pregnancies [2] | IC50 [3] [nM] | Selectivity hEP2/hDP (human PGD receptor) | inhibition at 1 µM (cumulus-oocyte complexes; 1 μM, read-out: % reduction at 1 μM (reduction in the cumulus expansion)) [%] | inhibition at 0.5 µM (cumulus-oocyte complexes; 0.5 μm, read-out: % reduction at 0.5 μm (reduction in the cumulus expansion)) [%] |
| --- | --- | --- | --- | --- | --- | --- | --- |
| COCCNC(=O)c1ccc2nn(CC3CCN(C(=O)c4ccc(Cl)cc4)CC3)cc2c1C [Example 56, 2-{[1-(4-chlorobenzoyl)piperidin-4-yl]methyl}-N-(2-methoxyethyl)-4-methyl-2H-indazol-5-carboxamide] | xxx (xxx > 100) | 12 | 2 | 13.1 | xxx (xxx > 100) |  |  |
| Cc1c(C(=O)NCC(F)(F)F)ccc2nn(CC3CCN(C(=O)c4ccc(Oc5ccc(C(F)(F)F)cc5)cc4)CC3)cc12 [Example 291, 4-methyl-N-(2,2,2-trifluoroethyl)-2-[(1-{4-[4-(trifluoromethyl)phenoxy]-benzoyl}piperidin-4-yl)methyl]-2H-indazol-5-carboxamide] | xxx (xxx > 100) |  |  | 5.94 | xxx (xxx > 100) | 73 | 76 |
